Values joined by “and” are separate entries in the source; they are usually repeats but may differ in a detail not shown here. Identical values can stand only once.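 Method: 48-hour compound exposure of cells in 96-well plates, five concentrations, linear interpolation of endpoints. GI50 = concentration required for 50% inhibition of growth. Definition used: TGI = concentration required for complete inhibition of growth.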
Columns and labels:
Assay in all cases: NCI anticancer screen, dose series, 48 h
SF-295 CNS = system: SF-295 CNS
MCF7 breast = system: MCF7 breast
KM12 colon = system: KM12 colon
TK-10 renal = system: TK-10 renal
RXF 393 renal = system: RXF 393 renal
SR leukemia = system: SR leukemia
T-47D breast = system: T-47D breast
HL-60(TB) leukemia = system: HL-60(TB) leukemia
ACHN renal = system: ACHN renal
RPMI-8226 leukemia = system: RPMI-8226 leukemia

| Structure (SMILES) | GI50 (SF-295 CNS) | TGI (SF-295 CNS) | GI50 (MCF7 breast) | TGI (MCF7 breast) | GI50 (KM12 colon) | TGI (KM12 colon) | GI50 (TK-10 renal) | TGI (TK-10 renal) | GI50 (RXF 393 renal) | TGI (RXF 393 renal) | GI50 (SR leukemia) | TGI (SR leukemia) | GI50 (T-47D breast) | TGI (T-47D breast) | GI50 (HL-60(TB) leukemia) | TGI (HL-60(TB) leukemia) | GI50 (ACHN renal) | TGI (ACHN renal) | GI50 (RPMI-8226 leukemia) | TGI (RPMI-8226 leukemia) |
| --- | --- | --- | --- | --- | --- | --- | --- | --- | --- | --- | --- | --- | --- | --- | --- | --- | --- | --- | --- | --- |
| COc1cccc2c1cc([N+](=O)[O-])c1c(C(=O)O)cc3c(c12)OCO3 | 17.4 µM | > 100 µM | 30.7 µM | > 100 µM | 24.5 µM | > 87.2 µM | 8.86 µM | 48.1 µM and > 100 µM | 18 µM | 40.6 µM and > 56.9 µM | 24.9 µM | 75.7 µM and 78.9 µM | 66.3 µM | > 100 µM | 35.1 µM | > 100 µM and 51.5 µM | 35.2 µM | > 100 µM | 37.1 µM | > 100 µM |
| Oc1ccc(Br)cc1/C=N/NC(=S)NC12CC3CC(CC(C3)C1)C2 | 2.6 µM | 7.89 µM | 1.86 µM | 5.92 µM | 1.8 µM | 4.35 µM | – | – | 1.52 µM | 3.36 µM | 0.682 µM | 3.47 µM | 2.15 µM | 8.33 µM | 2.52 µM | 6.5 µM | 2.08 µM | 10.3 µM | 2.07 µM | 5.8 µM |
| Cc1[nH]nc2c1N=C(c1ccccc1F)c1cc(C#N)ccc1N2 | 0.207 µM | 15.9 µM | 0.119 µM | > 16.8 µM | 0.111 µM | 6.48 µM | 1.91 µM | 8.73 µM | 0.105 µM | 1.99 µM | 0.0641 µM | > 18 µM | 1.36 µM | > 15.2 µM | 0.0969 µM | 8.71 µM | 0.326 µM | 5.37 µM | 7.4 µM | 19.5 µM |
| C=CC[Se]C(=O)Cc1c(C)n(C(=O)c2ccc(Cl)cc2)c2ccc(OC)cc12 | 0.334 µM | 1.45 µM | 1.81 µM | 4.17 µM | 1.53 µM | 3.42 µM | 1.75 µM | 3.19 µM | – | – | 2.29 µM | 8.19 µM | 2.29 µM | 5.7 µM | 2.26 µM | 5.56 µM | 1.79 µM | 3.25 µM | 2.28 µM | 5.86 µM |
| CCCC(=O)NC(c1ccc2c(c1)OCO2)c1ccc2cccnc2c1O (stereo unspecified) | 0.728 µM | 42.6 µM | 0.748 µM | > 100 µM | 2.09 µM | > 100 µM | 2.97 µM | > 100 µM | 1.47 µM | 7.54 µM | 0.402 µM | > 100 µM | 2.24 µM | > 100 µM | 0.317 µM | 4.76 µM | 0.466 µM | > 100 µM | 1.03 µM | 27.8 µM |
| COc1cc(-c2nc(SCC(=O)Nc3ccc(C(C)=O)cc3)[nH]c(=O)c2C#N)cc(OC)c1OC | 43 µM | > 100 µM | 40 µM | > 100 µM | 63.6 µM | > 100 µM | 96.9 µM | > 100 µM | 40.1 µM | > 100 µM | 19 µM | > 100 µM | 34 µM | > 100 µM | 35 µM | > 100 µM | 85 µM | > 100 µM | 29.9 µM | > 100 µM |
| CCN(Cc1nc2cc(C(F)(F)F)ccc2nc1-c1ccccc1)c1ccc(OC)c(OC)c1 | 15.7 µM | 31.8 µM | 25.9 µM | > 100 µM | 19.9 µM | 43.6 µM | 28 µM | 82.3 µM | 0.312 µM | 9.09 µM | 7.61 µM | 31.2 µM | 18.5 µM | 61.2 µM | 4.46 µM | 17.6 µM | 16.4 µM | 44 µM | 2.51 µM | 11.2 µM |
| CC1CCC2C(C)C3C(CC4C5CC=C6CC(OC7OC(CO)C(O)C(OC8OC(CO)C(O)C(O)C8O)C7OC7OC(C)C(O)C(O)C7O)CCC6(C)C5CCC43C)N2C1 (stereo unspecified) | > 2.5 µg/mL | 22.7 µM and > 2.5 µg/mL | > 2.5 µg/mL | 29.1 µM and > 2.5 µg/mL | > 2.5 µg/mL | 28.3 µM and > 2.5 µg/mL | > 2.5 µg/mL | 30.6 µM and > 2.5 µg/mL | > 2.5 µg/mL | 22.3 µM and > 2.5 µg/mL | > 2.5 µg/mL | 29 µM and > 2.5 µg/mL | > 2.5 µg/mL | 45 µM and > 2.5 µg/mL | – | 25.4 µM | > 2.5 µg/mL | 20.3 µM and > 2.5 µg/mL | > 2.5 µg/mL | 45.9 µM and > 2.5 µg/mL |
| COc1ccc(C2C(c3ccccc3)C(=O)N2c2cc(OC)c(OC)c(OC)c2)cc1I (stereo unspecified) | 0.337 µM | > 100 µM | 0.336 µM | > 100 µM | 0.343 µM | > 100 µM | > 100 µM | > 100 µM | 0.324 µM | > 100 µM | 0.286 µM | > 100 µM | > 100 µM | > 100 µM | 0.225 µM | 0.533 µM | – | – | 0.422 µM | > 100 µM |
| C[C@@]1(c2ncncc2F)NC(=O)c2cc(-c3cn[nH]c3)ccc21 | 29.4 µM | > 100 µM | 21 µM | > 100 µM | 29.6 µM | > 100 µM | 10.9 µM | 58.3 µM | 15.2 µM | 37.3 µM | 15.6 µM | > 100 µM | 27.9 µM | > 100 µM | 15.8 µM | 60.4 µM | – | – | 31 µM | 95.2 µM |

Reference: PubChem BioAssay (NCI)
